Legend:
[1] = test system: MCF7 cells; assay: Peptide binding to MCF7 breast cancer cells by flow cytometry; conditions: 0.1-100 μg/ml peptide, 4° C., 20 minutes
Experimental: (§1) To assess peptide binding, MCF7 cells were incubated with increasing doses (0.1-100 μg/ml) of the BK-FITC peptide at 4° C. for 20 minutes. Cells were subsequently washed 4 times with PBS and analyzed by flow cytometry. […] Subsequently, we evaluated the specificity of the BK-peptide for breast cancer cells by incubating MCF7 cells in parallel with human peripheral blood mononuclear cells under the same conditions as mentioned above.
(§2) FIG. 2. […] MCF7 cells (left panel) and human peripheral blood mononuclear cells (PBMC) (right panel) were incubated with increasing doses of peptide for 20 min at 4° C. The cells were subsequently analyzed by flow cytometry for mean fluorescence intensity of FITC, depicted on the y-axis.

[2] = test system: human peripheral blood mononuclear cells; assay: Peptide binding to peripheral blood mononuclear cells by flow cytometry (specificity); conditions: 0.1-100 μg/ml peptide, 4° C., 20 minutes
Experimental: as §1, §2

[3] = test system: MCF7 cells; assay: Killing of MCF7 cells, propidium iodide staining and flow cytometry; format: cell-based; conditions: 50 μg/ml peptide, 24 h
Experimental: (§3) Next, we examined to what extent the peptide specifically kills MCF7 cells. White blood cells (WBCs) were used as a control for normal non-cancerous cells. WBCs were isolated from a healthy donor by ficoll hypaque gradient centrifugation. Red blood cells were removed using a red blood cell lysis buffer and the remaining WBCs were used for the experiment. MCF7 cells and WBCs were incubated with 50 μg/ml peptide or medium only for 24 h. Cells were collected, stained with propidium iodide (PI) and analyzed for apoptosis by flow cytometry (FIG. 3). The data was analyzed by gating on life PI negative cells which is depicted as % viable cells on the y-axis.

[4] = test system: White blood cells (WBCs); assay: Killing of white blood cells (normal cell control), propidium iodide staining and flow cytometry; format: cell-based; conditions: 50 μg/ml peptide, 24 h, WBCs from a healthy donor
Experimental: as §3

Substance	binding to MCF7 cells, mean fluorescence intensity (MFI) of FITC [1]	binding to peripheral blood mononuclear cells, mean fluorescence intensity of FITC [2]	killing of MCF7 cells (% viable cells, PI negative) [3]	killing of white blood cells (% viable cells, PI negative) [4]
KLAKLAKKLAKLAK-GG-LTVXPWY (SEQ ID NO:9) conjugated to fluoresceinisothiocyanate (FITC) [BK1-FITC, BK1-peptide conjugated to fluoresceinisothiocyanate]	dose dependent increase in mean fluorescence intensity			
KLAKLAKKLAKLAK-GG-LTVXPWY [BK1-peptide]	binds to breast cancer cells	did not observe binding	kills MCF7	but not white blood cells
